Reference: ChEMBL document CHEMBL1926634, “Structure-guided evolution of potent and selective CHK1 inhibitors through scaffold morphing” (J Med Chem, 2011)

Each molecule was assayed against T1, Serine/threonine-protein kinase Chk1 (Homo sapiens, UniProt O14757).
T1 sequence (O14757 whole entry): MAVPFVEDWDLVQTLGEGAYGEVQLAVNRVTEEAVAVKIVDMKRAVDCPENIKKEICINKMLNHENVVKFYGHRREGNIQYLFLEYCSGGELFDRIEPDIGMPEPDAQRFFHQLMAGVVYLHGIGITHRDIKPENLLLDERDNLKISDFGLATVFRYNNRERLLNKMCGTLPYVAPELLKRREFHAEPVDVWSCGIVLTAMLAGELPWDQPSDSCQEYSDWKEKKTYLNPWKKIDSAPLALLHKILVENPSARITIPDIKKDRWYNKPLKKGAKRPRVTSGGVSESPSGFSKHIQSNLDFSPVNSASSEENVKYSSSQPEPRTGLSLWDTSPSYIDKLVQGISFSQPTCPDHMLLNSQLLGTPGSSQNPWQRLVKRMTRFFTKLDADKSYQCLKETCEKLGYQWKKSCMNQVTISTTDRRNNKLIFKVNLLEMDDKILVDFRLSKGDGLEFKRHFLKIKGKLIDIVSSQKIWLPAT
Description: Competitive inhibition of human CHK1 using ATP as substrate by DELFIA

Row | IC50 | SMILES
1 | 20 µM | N#Cc1cnc(Nc2cc(NCC3CCOCC3)ncn2)cn1
2 | 0.29 µM | NCC1CCN(c2ncnc3[nH]c4cnccc4c23)CC1
3 | 0.67 µM | NC1CCN(c2ncnc3[nH]c4cnccc4c23)CC1
4 | 1.7 µM | NCCCNc1ncnc2[nH]c3cnccc3c12
5 | 3.2 µM | N#Cc1cccc(-c2c[nH]c3ncnc(N4CCOC(CN)C4)c23)c1 (configuration not stated)
6 | 22 µM | NCC1CCN(c2cc(Nc3cnccn3)ncn2)CC1
7 | 122 µM | c1cncc(Nc2cc(NCC3CCNCC3)ncn2)c1
